Activity and pA2 data for 14 compounds are collected here from ChEMBL document CHEMBL3243918, “Synthesis and adrenergic beta-blocking activity of some 1,3-benzodioxole derivatives” (J Med Chem, 1977).

Calls of active or inactive are those of the source. The rule behind the calls is not given here.

For data set [1], the system named is Cavia porcellus. Put plainly: Hypotensive activity at guinea pig assessed as decrease in blood pressure at 100 mg/kg, po after 3 hrs. The class given is functional, organism-based. Further details: dose 100 mg/kg.
For data set [2], the system named is Cavia porcellus. The data set is described as follows: Hypotensive activity at guinea pig assessed as decrease in blood pressure at 100 mg/kg, po after 1 hr. The class given is functional, organism-based. Further details: dose 100 mg/kg.
The species named for data set [3] is Cavia porcellus. Put plainly: Antagonist activity at guinea pig atrial beta adrenergic receptor assessed as isometric contractions at 5 x 10^-5 M by force displacement transducer. It counts as tissue-based. As to conditions: Cardiac atrium.
The test system of data set [4] is Cavia porcellus. Put plainly: Hypotensive activity at guinea pig assessed as decrease in blood pressure at 100 mg/kg, po after 5 hrs. The class given is functional, organism-based. The arrangement: dose 100 mg/kg.
In data set [5] the test system is Cavia porcellus. Put plainly: Hypotensive activity at guinea pig assessed as decrease in blood pressure at 50 mg/kg, po after 3 hrs (reference value: 112 +/- 2.6 to 122 +/- 2.7 mmHg). It counts as functional.
Data set [6] concerns Cavia porcellus. The data set is described as follows: Hypotensive activity at guinea pig assessed as decrease in blood pressure at 50 mg/kg, po after 5 hrs (reference value: 112 +/- 2.6 to 122 +/- 2.7 mmHg). It counts as functional.
Data set [7] deals with Cavia porcellus. Put plainly: Hypotensive activity at guinea pig assessed as decrease in blood pressure at 50 mg/kg, po after 1 hr (reference value: 112 +/- 2.6 to 122 +/- 2.7 mmHg). The class given is functional.
Data set [8] is described as follows: Antagonist activity at guinea pig atrial beta adrenergic receptor assessed as isometric contractions by force displacement transducer. The class given is tissue-based, Cavia porcellus, Cardiac atrium.
Data set [9] concerns Cavia porcellus. Put plainly: Toxicity in guinea pig assessed as increase in heart beating rate at 50 mg/kg, po. The class given is organism-based. Further details: dose 50 mg/kg, route oral. Conditions: in vivo.
For data set [10], the system named is Cavia porcellus. Put plainly: Toxicity in guinea pig assessed as depression in heart beating rate at 50 mg/kg, po relative to control. The class given is organism-based. The arrangement: dose 50 mg/kg, route oral. Conditions: in vivo.

With `N=C(N)NCCc1ccc2c(c1)OCO2`, the result in data set [1], in [2], in data set [3] and in [4] was inactive.

Take `CC(C)NCC(O)COc1cccc2ccccc12` (stereo not given) [PROPRANOLOL]: the Activity was found to be 119 mmHg in data set [5], 117 mmHg in data set [6] and 141 mmHg in data set [7].

`N=C(N)NCC(O)c1ccc2c(c1)OCO2` (stereo not given): the result in data set [1], in data set [2], in [3] and in [4] was inactive.

With `CC(C)NCC(O)c1ccc2c(c1)OCO2.Cl` (stereo not given), the Activity in data set [5] is recorded as 84 mmHg; in data set [6], 87 mmHg; in data set [7], 97 mmHg; in data set [9], 25%. In addition, in data set [8], the pA2 came out at 6.2.

As to `CNCC(O)COC(=O)c1ccc2c(c1)OCO2.O=C(O)C(=O)O` (stereo not given), the Activity in [10] is recorded as under 10%. The outcome in [1], in data set [2] and in data set [4] was inactive. Further, in data set [8], the pA2 came to 5.3.

As to `CC(C)NC(C)C(O)c1ccc2c(c1)OCO2.Cl` (stereo not given), the Activity is reported as under 10% in [10], 91 mmHg in [5], 94 mmHg in [6] and 92 mmHg in data set [7]. For the same compound, the result in [3] was inactive.

With `CC(C)NCC(O)COC(=O)c1ccc2c(c1)OCO2.Cl` (stereo not given), the result in data set [1], in data set [2] and in data set [4] was inactive. For the same compound, the pA2 in data set [8] is recorded as 6.9.

Regarding `OC(CNC1=NCCN1)c1ccc2c(c1)OCO2` (stereo not given), the outcome in [1], in data set [2], in data set [3] and in [4] was inactive.

For `CC(C)(C)NCC(O)COC(=O)c1ccc2c(c1)OCO2.Cl` (stereo not given), the outcome in [1], in data set [2] and in data set [4] was inactive. Further, the pA2 in data set [8] is on record as 6.9.

Take `NNc1nncc2ccccc12`: the outcome in [3] was inactive.

Turning to `CC(C)NCC(O)c1ccc(NS(C)(=O)=O)cc1` (stereo not given) [SOTALOL], the values for the Activity in data set [5], in data set [6] and in data set [7] were 108 mmHg, 107 mmHg and 112 mmHg, respectively. Further, in [8], the pA2 amounted to 6.8.

For the compound `CC(C)(C)NCC(O)c1ccc2c(c1)OCO2.Cl` (stereo not given), the Activity in [5] is listed as 77 mmHg; in data set [6] it was 77 mmHg; in data set [7] it was 83 mmHg. For the same compound, the pA2 in data set [8] was 6.5.

For the compound `c1cc2c(cc1CCNC1=NCCN1)OCO2`, the outcome in [1], in [2], in [3] and in data set [4] was inactive.

For `CC(C)NCC(O)/C=C/c1ccc2c(c1)OCO2` (stereo not given), the result in data set [1], in data set [2], in [3] and in data set [4] was inactive.

One may read the pA2 as the negative logarithm of the molar antagonist concentration that doubles the agonist concentration needed for the same response.
